From patent US20150197492A1, “NOVEL INDENO[1,2-c]QUINOLIN-11-ONE DERIVATIVES, PREPARATION METHOD AND APPLICATION THEREOF” (National Defense Medical Center, priority 2014, published 2015)

Assays:
Assay type in all cases: cell-based
[1] = system: ACHN; assay: cells; conditions: ACHN (Renal Cancer), 10 μM, 48 hours
[2] = system: SK-OV-3; assay: cells; conditions: SK-OV-3 (Ovarian Cancer), 10 μM, 48 hours
[3] = system: KM12; assay: cells; conditions: KM12 (Colon Cancer), 10 μM, 48 hours
[4] = system: HT29; assay: cells; conditions: HT29 (Colon Cancer), 10 μM, 48 hours
[5] = system: SK-MEL-28; assay: cells; conditions: SK-MEL-28 (Melanoma), 10 μM, 48 hours
[6] = system: HCT-15; assay: cells; conditions: HCT-15 (Colon Cancer), 10 μM, 48 hours
[7] = system: K-562; assay: cells; conditions: K-562 (Leukemia), 10 μM, 48 hours
[8] = system: M14; assay: cells; conditions: M14 (Melanoma), 10 μM, 48 hours
[9] = system: BT-549; assay: cells; conditions: BT-549 (Breast Cancer), 10 μM, 48 hours
[10] = system: OVCAR-3; assay: cells; conditions: OVCAR-3 (Ovarian Cancer), 10 μM, 48 hours
[11] = system: SW-620; assay: cells; conditions: SW-620 (Colon Cancer), 10 μM, 48 hours
[12] = system: IGROV1; assay: cells; conditions: IGROV1 (Ovarian Cancer), 10 μM, 48 hours
[13] = system: 55 to 60 cancer cell lines; conditions: 10 μM, 48 hours, all tested cell lines
[14] = system: HCT-116; assay: cells; conditions: HCT-116 (Colon Cancer), 10 μM, 48 hours
[15] = system: OVCAR-4; assay: cells; conditions: OVCAR-4 (Ovarian Cancer), 10 μM, 48 hours
[16] = system: TK-10; assay: cells; conditions: TK-10 (Renal Cancer), 10 μM, 48 hours
[17] = system: A498; assay: cells; conditions: A498 (Renal Cancer), 10 μM, 48 hours
[18] = system: SR; assay: cells; conditions: SR (Leukemia), 10 μM, 48 hours
[19] = system: human PC-3 cells; assay: Sulforhodamine B (SRB) assay, cytotoxicity against PC-3 cells; conditions: SRB assay, PC-3 cells
Procedure: Add 5% Fetal Bovine Serum (FBS) to 96-well plate and fix the cells with 10% TCA after 24 hours of incubation and add the compound (T0). Add DMSO and culture for another 48 hours and the cells are fixed in 0.4% (W/V), 10% TCA and SRB, and […]. Excess SRB is washed off by 1% acetic acid and cells stained with SRB are dissolved in 10 mmol/L Trizma base. The absorbance is measured at 515 nm. The treatment time is 0 (T0), control growth (C) and the increase of the compound (Tx) in the cells are shown below and are used to calculate the increase of the concentration of the compound in percentage. Growth inhibition (GI %) is calculated using the following formula 100−[(TX−T0)/(C−T0)]×100. The 50% growth inhibition concentration (IC50) is used to confirm the concentration of compound and thus results in 50% reduction of the treated cells which control the amount of total protein.
This part of experimental results are SRB assays measuring cytotoxicity of the 26 synthesized compounds against human PC-3 cells and are summarized in Table 1 and 2.

[20] = system: NCI-H23; assay: cells; conditions: NCI-H23 (Non-Small Cell Lung Cancer), 10 μM, 48 hours
[21] = system: PC-3; assay: cells; conditions: PC-3 (Prostate Cancer), 10 μM, 48 hours
[22] = system: MOLT-4; assay: cells; conditions: MOLT-4 (Leukemia), 10 μM, 48 hours
[23] = system: SN12C; assay: cells; conditions: SN12C (Renal Cancer), 10 μM, 48 hours
[24] = system: SF-268; assay: cells; conditions: SF-268 (CNS Cancer), 10 μM, 48 hours
[25] = system: NCI-H322M; assay: cells; conditions: NCI-H322M (Non-Small Cell Lung Cancer), 10 μM, 48 hours
[26] = system: NCI-H460; assay: cells; conditions: NCI-H460 (Non-Small Cell Lung Cancer), 10 μM, 48 hours
[27] = system: SF-295; assay: cells; conditions: SF-295 (CNS Cancer), 10 μM, 48 hours
[28] = system: HL-60 (TB); assay: cells; conditions: HL-60 (TB) (Leukemia), 10 μM, 48 hours
[29] = system: U251; assay: cells; conditions: U251 (CNS Cancer), 10 μM, 48 hours
[30] = system: LOX IMVI; assay: cells; conditions: LOX IMVI (Melanoma), 10 μM, 48 hours

For CC1CCN(c2nc3ccccc3c3c2-c2ccc(Cl)cc2C3=O)CC1 [SJ-6, 9-Chloro-6-(4-methylpiperidin-1-yl)-11H-indeno[1,2-c]quinolin-11-one], the growth percentage [1] was 94.75%, the growth percentage [2] was 99.78% and the growth percentage [3] was 94.80%. It also gave a growth percentage [4] of 104.84%, a growth percentage [5] of 105.21% and a growth percentage [6] of 97.78%. It also gave a growth percentage [7] of 103.57%, a growth percentage [8] of 96.60% and a growth percentage [9] of 95.52%. The growth percentage [10] was 97.59%, the growth percentage [11] was 88.89% and the growth percentage [12] was 94.36%. For the same compound, the “Mean (mean growth percentage of the tested cancer cell lines)” value [13] was 96.2%, the growth percentage [14] was 102.51% and the growth percentage [15] was 97.11%. It also gave a growth percentage [16] of 134.79%, a growth percentage [17] of 87.55% and a growth percentage [18] of 98.51%. For the same compound, the “Toxicity (%)” value [19] was 0%, the “GI % (10 μM)” value [19] was 89.81% and the growth percentage [20] was 90.42%. For the same compound, the growth percentage [21] was 90.64%, the growth percentage [22] was 94.41% and the growth percentage [23] was 99.08%. The growth percentage [24] was 96.49%, the growth percentage [25] was 107.08% and the growth percentage [26] was 101.21%. It also gave a growth percentage [27] of 96.18% and a growth percentage [28] of 98.84%.
With O=C1c2cc(Cl)ccc2-c2c(N3CCN(C4CCCC4)CC3)nc3ccccc3c21 [SJ-14, 9-Chloro-6-(4-cyclopentylpiperazin-1-yl)-11H-indeno[1,2-c]quinolin-11-one] the growth percentage [1] was 100.03%, the growth percentage [2] was 96.85% and the growth percentage [3] was 99.33%. For the same compound, the growth percentage [4] was 93.22%, the growth percentage [5] was 107.58% and the growth percentage [6] was 89.64%. For the same compound, the growth percentage [7] was 99.26%, the growth percentage [8] was 105.34% and the growth percentage [9] was 102.74%. It also gave a growth percentage [10] of 99.54%, a growth percentage [11] of 93.06% and a growth percentage [12] of 85.84%. For the same compound, the “Mean (mean growth percentage of the tested cancer cell lines)” value [13] was 96.53%, the growth percentage [14] was 91.34% and the growth percentage [15] was 94.20%. The growth percentage [17] was 88.64%, the growth percentage [18] was 97.09% and the “Toxicity (%)” value [19] was 0%. For the same compound, the “GI % (10 μM)” value [19] was 96.26%, the growth percentage [20] was 92.80% and the growth percentage [21] was 86.19%. It also gave a growth percentage [22] of 98.39%, a growth percentage [23] of 99.08% and a growth percentage [24] of 96.39%. For the same compound, the growth percentage [25] was 98.50%, the growth percentage [26] was 101.46% and the growth percentage [27] was 96.87%. The growth percentage [28] was 103.04%.
With O=C1c2cc(Cl)ccc2-c2c(N3CCN(c4ccccc4)CC3)nc3ccccc3c21 [SJ-16, 9-Chloro-6-(4-phenylpiperazin-1-yl)-11H-indeno[1,2-c]quinolin-11-one] the growth percentage [1] was 68.58%, the growth percentage [2] was 78.58% and the growth percentage [3] was 98.34%. The growth percentage [4] was 82.40%, the growth percentage [5] was 104.82% and the growth percentage [6] was 80.71%. For the same compound, the growth percentage [7] was 95.17%, the growth percentage [8] was 97.52% and the growth percentage [9] was 89.83%. For the same compound, the growth percentage [10] was 98.07%, the growth percentage [11] was 93.14% and the growth percentage [12] was 65.13%. For the same compound, the “Mean (mean growth percentage of the tested cancer cell lines)” value [13] was 87.29%, the growth percentage [14] was 78.18% and the growth percentage [15] was 90.32%. For the same compound, the growth percentage [16] was 115.61%, the growth percentage [17] was 97.48% and the growth percentage [18] was 95.93%. For the same compound, the “Toxicity (%)” value [19] was 0%, the “GI % (10 μM)” value [19] was 65.91% and the growth percentage [20] was 83.34%. For the same compound, the growth percentage [21] was 79.79%, the growth percentage [22] was 98.13% and the growth percentage [23] was 87.90%. It also gave a growth percentage [24] of 85.45%, a growth percentage [25] of 98.63% and a growth percentage [26] of 97.04%. The growth percentage [27] was 60.91% and the growth percentage [28] was 105.45%.
In the case of COc1cccc(N2CCN(c3nc4ccccc4c4c3-c3ccc(Cl)cc3C4=O)CC2)c1 [SJ-20, 9-Chloro-6-(4-(3-methoxyphenyl)piperazin-1-yl)-11H-indeno[1,2-c]quinolin-11-one], the growth percentage [1] is reported as 93.51%, the growth percentage [2] is reported as 86.02% and the growth percentage [3] is reported as 105.95%. The growth percentage [4] was 95.93%, the growth percentage [5] was 103.93% and the growth percentage [6] was 100.39%. For the same compound, the growth percentage [7] was 94.25%, the growth percentage [8] was 105.07% and the growth percentage [9] was 101.57%. It also gave a growth percentage [10] of 104.27%, a growth percentage [11] of 91.16% and a growth percentage [12] of 80.87%. For the same compound, the “Mean (mean growth percentage of the tested cancer cell lines)” value [13] was 92.15%, the growth percentage [14] was 93.02% and the growth percentage [15] was 87.08%. It also gave a growth percentage [16] of 133.34%, a growth percentage [17] of 104.53% and a growth percentage [18] of 95.05%. The “Toxicity (%)” value [19] was 0%, the “GI % (10 μM)” value [19] was 98.05% and the growth percentage [20] was 87.22%. For the same compound, the growth percentage [21] was 72.83%, the growth percentage [22] was 95.46% and the growth percentage [23] was 88.17%. It also gave a growth percentage [24] of 83.89%, a growth percentage [25] of 91.93% and a growth percentage [26] of 101.76%. For the same compound, the growth percentage [27] was 90.05% and the growth percentage [28] was 99.09%.
Compound COc1nc2ccccc2c2c1-c1ccc(Cl)cc1C2=O [SJ-27, 6-Methoxy-9-chloro-11H-indeno[1,2-c]quinolin-11-one] has a growth percentage [1] of 90.83%, a growth percentage [2] of 119.79% and a growth percentage [3] of 98.35%. The growth percentage [4] was 111.60%, the growth percentage [5] was 106.24% and the growth percentage [6] was 94.98%. The growth percentage [7] was 108.53%, the growth percentage [8] was 96.50% and the growth percentage [9] was 92.95%. The growth percentage [10] was 111.89%, the growth percentage [11] was 98.89% and the growth percentage [12] was 96.92%. The “Mean (mean growth percentage of the tested cancer cell lines)” value [13] was 96.23%, the growth percentage [14] was 88.60% and the growth percentage [17] was 93.51%. For the same compound, the growth percentage [20] was 93.26%, the growth percentage [21] was 74.44% and the growth percentage [22] was 110.33%. For the same compound, the growth percentage [23] was 89.48%, the growth percentage [29] was 97.67% and the growth percentage [24] was 113.64%. The growth percentage [25] was 99.80%, the growth percentage [26] was 98.27% and the growth percentage [30] was 116.91%. The growth percentage [28] was 108.77%.
